Read-outs that look alike come from different tables or passages of the source.
Biological target: T1, WT E. coli PNP (Escherichia coli, UniProt P0ABP8)
T1 construct: made in house
T1 sequence (P0ABP8 2-239 limits assumed): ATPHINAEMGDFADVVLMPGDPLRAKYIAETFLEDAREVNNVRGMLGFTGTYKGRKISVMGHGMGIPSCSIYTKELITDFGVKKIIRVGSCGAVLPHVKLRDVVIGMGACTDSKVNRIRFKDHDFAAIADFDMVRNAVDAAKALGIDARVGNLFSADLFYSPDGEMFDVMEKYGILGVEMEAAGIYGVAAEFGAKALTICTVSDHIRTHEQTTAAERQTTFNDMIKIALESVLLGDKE
Test: Fluorescence titrations with phosphate
Settings: three-binding-site model, 25 °C
Description: All experiments were carried out on the Perkin-Elmer LS55 spectrofluorimeter. Fluorescence spectra were registered using in each case (protein or protein–ligand complex) several excitation wavelengths. Differential spectra were calculated by subtracting spectrum of a protein from the spectrum of the appropriate complex. The negative differential fluorescence intensity means that a decrease of fluorescence upon complex formation is observed. Titrations of the enzyme with phosphate were registered using several excitation and observation wavelengths combinations. When selecting specific wavelengths for such a combination, two criteria were used: (1) the overall change in the fluorescence signal and (2) the complexity of the shape of the titration as the analysis of the multi-phasic curves is more explicit than a uni-phasic curve analysis.
Path length for the excitation was 2 mm and for the emission was 5 mm (half of the cuvette dimensions). A continuous stirring was used during titrations. All measurements were performed at 25 °C. […]
Fluorescence intensity of the WT protein is stable over time, but in the case of the Y160W mutant a slight quenching of fluorescence is observed during titration, which typically lasted about 30 min as the time between each point in the titration was 1 min. Furthermore, adding phosphate during titration stabilises the intrinsic fluorescence of the protein. […] Thus corrected binding curves, F^cor([Pi]), are given by the following equation, in which Fn([Pi]) is the fluorescence intensity measured for the phosphate concentration [Pi], and n is the number of a given titration point in the particular titration:4 FncorPi=FnPi+∑m=1naPim
To check its influence on the intrinsic protein fluorescence, titrations with NaCl were performed, giving dependence F(I). […] Titration curves of the WT protein with phosphate were therefore measured up to 100 mM ionic strength of solution, which is enough to observe a plateau. […] Both F^obs([Pi]) and F(I) were corrected for the time dependent fluorescence quenching, according to Eq. (4), prior to the F^bind([Pi]) calculation. […]

## O=P(O)(O)O [Pi, Orthophosphate]
50 mM Tris/HCl pH 7.6, read-out: Kd1 ± SD
  Kd: 4.4 µM
50 mM Tris/HCl pH 7.6, read-out: Kd2 ± SD
  Kd: 84 µM
50 mM Tris/HCl pH 7.6, read-out: Kd3 ± SD
  Kd: 1770 µM

Reference: article PMC8160210, “Single tryptophan Y160W mutant of homooligomeric E. coli purine nucleoside phosphorylase implies that dimers forming the hexamer are functionally not equivalent” (Scientific Reports, 2021)
